Laboratory results as given in patent US8993574B2, “Pyrrole antifungal agents” (F2G Ltd, priority 2008, dated 2015).
Values after ≈ are worked out from the molar mass of the structure shown.

How the values were obtained:
Format in all cases: cell-based
Aspergillus terreus AT4 [1] = assay: MIC, YAG medium; conditions: Aspergillus terreus, 24 h at 35° C, MIC banded into grades, read-out: MIC grade, A. terreus
Method in brief: (§1)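 Spores harvested from 5-day Sabouraud agar cultures were inoculated at 1−2×10^4 cfu/mL into YAG medium (1% glucose, 1% ammonium chloride, 0.5% yeast extract) over doubling drug dilutions spanning 50-0.05 mg/L, or 0.5-0.0005 mg/L on repeat. After 24 h at 35° C, OD485 was read. MIC is the lowest concentration inhibiting growth >70% versus drug-free control, in mg/L.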

[2] = test system: Aspergillus fumigatus AF293; assay: MIC, YAG medium; conditions: Aspergillus fumigatus, 24 h at 35° C, MIC banded into grades, read-out: MIC grade, A. fumigatus
Method in brief: as §1

Aspergillus terreus AT49 [3] = assay: MIC, YAG medium; conditions: Aspergillus terreus, 24 h at 35° C, MIC banded into grades, read-out: MIC grade, A. terreus 49
Method in brief: as §1

Aspergillus niger [4] = assay: MIC, YAG medium; conditions: Aspergillus niger, 24 h at 35° C, MIC banded into grades, read-out: MIC grade, A. niger
Method in brief: as §1

Aspergillus flavus [5] = assay: MIC, YAG medium; conditions: Aspergillus flavus, 24 h, 24 h at 35° C, MIC banded into grades, read-out: MIC grade, A. flavus
Method in brief: as §1

[6] = test system: Aspergillus fumigatus AF210; assay: MIC, YAG medium; conditions: Aspergillus fumigatus, 24 h at 35° C, MIC banded into grades, read-out: MIC grade, A. fumigatus 210
Method in brief: as §1

Aspergillus terreus AT4 [7] = assay: MIC, RPMI medium; conditions: Aspergillus terreus, AT4, MIC banded into grades, read-out: MIC grade, A. terreus
Method in brief: (§2)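 Fungi are tested in RPMI buffered with 0.135 M MOPS (pH 7.0) plus 2% glucose, inoculum 1−2×10^4 cfu/mL, against doubling compound dilutions spanning 50-0.05 mg/L. After 24-48 h at 35° C, the MIC is the lowest concentration suppressing growth by >80% against drug-free control.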

[8] = test system: Aspergillus fumigatus AF293; assay: MIC, RPMI medium; conditions: Aspergillus fumigatus, AF293, MIC banded into grades, read-out: MIC grade, A. fumigatus
Method in brief: as §2

Aspergillus terreus AT49 [9] = assay: MIC, RPMI medium; conditions: Aspergillus terreus, AT49, MIC banded into grades, read-out: MIC grade, A. terreus 49
Method in brief: as §2

Aspergillus niger [10] = assay: MIC, RPMI medium; conditions: Aspergillus niger, MIC banded into grades, read-out: MIC grade, A. niger
Method in brief: as §2

Aspergillus flavus [11] = assay: MIC, RPMI medium; conditions: Aspergillus flavus, MIC banded into grades, read-out: MIC grade, A. flavus
Method in brief: as §2

[12] = test system: Aspergillus fumigatus AF210; assay: MIC, RPMI medium; conditions: Aspergillus fumigatus, AF210, MIC banded into grades, read-out: MIC grade, A. fumigatus 210
Method in brief: as §2

SMILES	MIC (Aspergillus terreus AT4 [1])	MIC [2]	MIC (Aspergillus terreus AT49 [3])	MIC (Aspergillus niger [4])	MIC (Aspergillus flavus [5])	MIC [6]	MIC (Aspergillus terreus AT4 [7])	MIC [8]	MIC (Aspergillus terreus AT49 [9])	MIC (Aspergillus niger [10])	MIC (Aspergillus flavus [11])	MIC [12]
CC(=O)NCCn1c(C)cc(-c2ccccc2)c1C(=O)C(=O)Nc1ccc(N2CCN(c3cc(C)cc(C)n3)CC2)cc1 [Example 65, 2-[1-(2-Acetylamino-ethyl)-5-methyl-3-phenyl-1H-pyrrol-2-yl]-N-{4-[4-(4,6-dimethyl-pyridin-2-yl)-piperazin-1-yl]-phenyl}-2-oxo-acetamide]	> 10 µg/mL	> 10 µg/mL	> 10 µg/mL	> 10 µg/mL	> 10 µg/mL	> 10 µg/mL	> 10 µg/mL	> 10 µg/mL	> 10 µg/mL	> 10 µg/mL	> 10 µg/mL	> 10 µg/mL
Cc1cc(C)nc(N2CCN(c3ccc(NC(=O)C(=O)c4c(-c5ccccc5)ccn4CCO)cc3)CC2)c1 [Example 66, N-{4-[4-(4,6-Dimethyl-pyridin-2-yl)-piperazin-1-yl]-phenyl}-2-[1-(2-hydroxy-ethyl)-3-phenyl-1H-pyrrol-2-yl]-2-oxo-acetamide]	1 to 10 µg/mL (≈ 1.91 to 19.1 µM)	< 1 µg/mL	< 1 µg/mL	> 10 µg/mL	1 to 10 µg/mL (≈ 1.91 to 19.1 µM)	1 to 10 µg/mL (≈ 1.91 to 19.1 µM)	1 to 10 µg/mL (≈ 1.91 to 19.1 µM)	1 to 10 µg/mL (≈ 1.91 to 19.1 µM)	1 to 10 µg/mL (≈ 1.91 to 19.1 µM)	> 10 µg/mL	> 10 µg/mL	1 to 10 µg/mL (≈ 1.91 to 19.1 µM)
COCCn1ccc(-c2cccs2)c1C(=O)C(=O)Nc1ccc(N2CCN(c3cc(C)cc(C)n3)CC2)cc1 [Example 67, N-{4-[4-(4,6-Dimethyl-pyridin-2-yl)-piperazin-1-yl]-phenyl}-2-[1-(2-methoxy-ethyl)-3-thiophen-2-yl-1H-pyrrol-2-yl]-2-oxo-acetamide]	< 1 µg/mL	< 1 µg/mL	< 1 µg/mL	1 to 10 µg/mL (≈ 1.84 to 18.4 µM)	< 1 µg/mL	< 1 µg/mL	< 1 µg/mL	1 to 10 µg/mL (≈ 1.84 to 18.4 µM)	< 1 µg/mL	> 10 µg/mL	1 to 10 µg/mL (≈ 1.84 to 18.4 µM)	1 to 10 µg/mL (≈ 1.84 to 18.4 µM)
COCCn1cc(-c2cccc(Cl)c2)cc1C(=O)C(=O)Nc1ccc(N2CCN(c3cc(C)cc(C)n3)CC2)cc1 [Example 71, 2-[4-(3-Chloro-phenyl)-1-(2-methoxy-ethyl)-1H-pyrrol-2-yl]-N-{4-[4-(4,6-dimethyl-pyridin-2-yl)-piperazin-1-yl]-phenyl}-2-oxo-acetamide]	> 10 µg/mL	> 10 µg/mL	1 to 10 µg/mL (≈ 1.75 to 17.5 µM)	> 10 µg/mL	> 10 µg/mL	> 10 µg/mL	> 10 µg/mL	> 10 µg/mL	> 10 µg/mL	> 10 µg/mL	> 10 µg/mL	> 10 µg/mL
Cc1cc(C)nc(N2CCN(c3ccc(NC(=O)C(=O)c4c(-c5ccccc5)ccn4CC(N)=O)cc3)CC2)c1 [Example 75, 2-(1-Carbamoylmethyl-3-phenyl-1H-pyrrol-2-yl)-N-{4-[4-(4,6-dimethyl-pyridin-2-yl)-piperazin-1-yl]-phenyl}-2-oxo-acetamide]	> 10 µg/mL	> 10 µg/mL	> 10 µg/mL	> 10 µg/mL	> 10 µg/mL	> 10 µg/mL	> 10 µg/mL	> 10 µg/mL	> 10 µg/mL	> 10 µg/mL	> 10 µg/mL	> 10 µg/mL
